The values below come from US20170231966A1, “INHIBITION OF IL-2 PRODUCTION” (AYUMI PHARMACEUTICAL CORPORATION, priority 2013, published 2017).

Counter-ions that a name gives are not always drawn.

In this experiment the test system is transcriptional activation of IL-2. Briefly: IL-2 transcriptional activation Luciferase Assay (IL-2 Gene Promoter Reporter Vector) in A23187-stimulated Jurkat cells. Type of experiment: cell-based, human. To be noted: for Action on A23187-accelerated transcriptional activation of IL-2 (in words) / Inhibition ratio (transcriptional activation of IL-2), Table 2 / Inhibiting ratio of IL-2 transcriptional activation: A23187-stimulated Jurkat cells; for Luc activity value, No stimulation / Luc activity value, Stimulated by A23187: Jurkat cells, 24 hours, average ± standard deviation, n=3; for Luc activity value, No stimulation: no A23187, DMSO = 1; for Luc activity value, Stimulated by A23187: A23187 0.3 μM, unstimulated DMSO = 1.

For `CCOCCN(CCCOc1ccc(OC)cc1C1Sc2cc(Cl)ccc2N1C(C)=O)C(C)C.Cl` (racemic) [Compound 3, (±)-3-acetyl-6-chloro-2-[2-(3-(N-(2-ethoxyethyl)-N-isopropylamino)propoxy)-5-methoxyphenyl]benzothiazoline hydrochloride], the “Action on A23187-accelerated transcriptional activation of IL-2 (in words)” value (“Action” below) is on record as “inhibited transcriptional activation of IL-2”. The “Inhibition ratio (transcriptional activation of IL-2), Table 2” value (“Inhibition ratio” for short) (compound 10 μM) is on record as 77%.

Consider `CCOCCN(CCCOc1ccc(OC)cc1C1Sc2cc(Cl)ccc2N1C(C)=O)C(C)C` (single isomer, unassigned; (+)) [Compound 2, (+)-3-acetyl-6-chloro-2-[2-(3-(N-(2-ethoxyethyl)-N-isopropylamino)propoxy)-5-methoxyphenyl]benzothiazoline (+O,O′-diacetyl-L-tartaric acid salt], for which the “Action” value was “statistically significant inhibiting action”. Where the note is “compound 0.3 μM”, the “Luc activity value, No stimulation” value came to 0.8842 ± 0.1143; the “Luc activity value, Stimulated by A23187” value is recorded as 81.9510 ± 30.4537; the “Inhibiting ratio of IL-2 transcriptional activation” value (from here on “Inhibiting ratio”) turned out to be 12%. Also, where the note is “compound 1 μM”, the “Luc activity value, No stimulation” value was 0.9410 ± 0.0598; the “Luc activity value, Stimulated by A23187” value turned out to be 65.0761 ± 13.2402; the “Inhibiting ratio” value is given as 30%. For the same molecule, under “compound 10 μM”, the “Luc activity value, No stimulation” value came to 0.9469 ± 0.0928; the “Luc activity value, Stimulated by A23187” value is 27.5064 ± 29.2861; the “Inhibiting ratio” value was 70%.

Turning to `COc1ccc(OCCCN(CCO)C(C)C)c(C2Sc3cc(Cl)ccc3N2C(C)=O)c1.Cl` (single isomer, unassigned; (+)) [Compound 4, (+)-3-acetyl-6-chloro-2-[2-(3-(N-(2-hydroxyethyl)-N-isopropylamino)propoxy)-5-methoxyphenyl]benzothiazoline hydrochloride], the “Action” value is recorded as “inhibited transcriptional activation of IL-2”. Besides, the “Inhibition ratio” value (compound 10 μM) was determined as 38%.

For the molecule `CN(C(=O)C(c1ccccc1)c1ccccc1)[C@H](CN1CC[C@H](O)C1)c1ccccc1` [Asimadoline, asimadoline, reference compound], the “Inhibition ratio” value (compound 10 μM) was found to be 19%.

For `COCCN(CCCOc1ccc(OC)cc1C1Sc2cc(Cl)ccc2N1C(C)=O)C(C)C` [Compound 5, (+)-3-acetyl-6-chloro-2-[2-(3-(N-isopropyl-N-(2-methoxyethyl)amino)propoxy)-5-methoxyphenyl]benzothiazoline (−)-O,O′-diacetyl-L-tartaric acid salt], the “Action” value is on record as “inhibited transcriptional activation of IL-2”. Also, the “Inhibition ratio” value (compound 10 μM) came out at 72%.
